The subject of series [1] is Vero cells infected with virus particles.
Series [2] relates to African Swine Fever Virus (ASFV).

Regarding `CCCCCC(=O)O` [100% C6, caproic acid], in series [1], the “CPE (first test)” value is given as 3/3 and the “CPE (second test)” value is 3/3.

For the compound `CCCCCCCC(=O)O` [100% C8, caprylic acid], in series [1], the “CPE (first test)” value was 2/2, the “CPE (second test)” value is 2/2 and the “Visual scoring of protection against the cytopathic effect of the virus” value is listed as “scored best”.

Consider `CCCCCCCCC(=O)O` [100% C9, pelargonic acid], for which, in series [1], the “CPE (first test)” value is 2/2 and the “CPE (second test)” value is recorded as 2/2.

Consider `CCCCCCCCCC(=O)O` [100% C10, capric acid], for which, in series [1], the “CPE (first test)” value is listed as 2/4 and the “CPE (second test)” value is given as 2/4.

For `CCCCCCCCCCCC(=O)O` [100% C12, lauric acid], the “Solubility in the test solution” value in series [1] is given as “solubility issue was observed”.

With `CCCCCCCC(=O)O` [Composition F1, caprylic acid], the “Cq value for ASFV compared to positive control” value in series [2] is “significantly increase the Cq value”.

For the origin of these results see patent publication US20230114459A1, “Composition for Use in the Prophylaxis and Treatment of Viral Infections of the Asfarviridae Family” (priority 2020, published 2023).
